Assay results: ChEMBL document CHEMBL1201862, “PubChem BioAssay data set” (2004)
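Step 1: Grow cells in 96-well plates. Step 2: Expose to compound for 48 hours at 5 concentrations. Step 3: Interpolate endpoints linearly; if unreached, use highest concentration. At the GI50, growth is halved.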 Calls of active or inactive are those of the source. No stated cut-off is given here; in the data, active = GI50 up to about 1.1 µM and inactive = higher.

Legend:
Assay in all cases: inhibition of tumour cell growth, NCI panel, 48 h
[1] = test system: A549
[2] = test system: K562
[3] = test system: SF-268
[4] = test system: ACHN
[5] = test system: HL-60
[6] = test system: 786-0
[7] = test system: SK-OV-3
[8] = test system: COLO 205
[9] = test system: CAKI-1
[10] = test system: BT-549
[11] = test system: MOLT-4
[12] = test system: UO-31
[13] = test system: KM12
[14] = test system: NCI-H460
[15] = test system: SW-620
[16] = test system: HOP-62
[17] = test system: MDA-N
[18] = test system: HCT-15
[19] = test system: MDA-MB-231
[20] = test system: IGROV-1

SMILES | GI50 [1] | GI50 [2] | GI50 [3] | GI50 [4] | GI50 [5] | GI50 [6] | GI50 [7] | GI50 [8] | GI50 [9] | GI50 [10] | GI50 [11] | GI50 [12] | GI50 [13] | GI50 [14] | GI50 [15] | GI50 [16] | GI50 [17] | GI50 [18] [µM] | GI50 [19] | GI50 [20]
CN(C)CCn1c(=O)c2ccc3c4c(nn3CCN(C)C)c3ccccc3n(c1=O)c24 | 0.134 µM (active) | 0.146 µM (active) | 0.211 µM (active) | < 0.129 µM (active) | 0.598 µM (active) | < 0.121 µM (active) | 0.412 µM (active) | 0.201 µM (active) | 0.0608 µM (active) | 1.84 µM (inactive) | < 0.01 µM (active) | 0.271 µM (active) | 0.205 µM (active) | < 0.122 µM (active) | < 0.138 µM (active) | 0.164 µM (active) | 0.248 µM (active) | < 0.125 | 0.637 µM (active) | –
CC1=CC(=O)/C(=C/n2c(=S)[nH]c3cc(C)ccc32)C(=O)O1 | > 100 µM (inactive) | – | > 100 µM (inactive) | > 100 µM (inactive) | 55.6 µM (inactive) | > 100 µM (inactive) | > 100 µM (inactive) | > 100 µM (inactive) | > 100 µM (inactive) | > 100 µM (inactive) | > 100 µM (inactive) | > 100 µM (inactive) | > 100 µM (inactive) | > 100 µM (inactive) | > 100 µM (inactive) | > 100 µM (inactive) | > 100 µM (inactive) | > 100 | > 100 µM (inactive) | > 100 µM (inactive)
CC(C)(C)OC(=O)N1CCc2c(n(C/C=C/c3ccccc3)[nH]c2=O)C1 | > 100 µM (inactive) | 46.6 µM (inactive) | > 100 µM (inactive) | > 100 µM (inactive) | 27.8 µM (inactive) | > 100 µM (inactive) | > 100 µM (inactive) | > 70.6 µM (inactive) | > 100 µM (inactive) | > 100 µM (inactive) | 33.6 µM (inactive) | 61.2 µM (inactive) | > 100 µM (inactive) | > 100 µM (inactive) | > 100 µM (inactive) | > 80.7 µM (inactive) | > 100 µM (inactive) | > 100 | > 100 µM (inactive) | > 100 µM (inactive)
NCCN1C(=O)CN=C(c2ccc(Cl)cc2)c2cc(Cl)ccc21 | 17.1 µM (inactive) | 16.3 µM (inactive) | 14.4 µM (inactive) | 18.7 µM (inactive) | 16 µM (inactive) | 15.9 µM (inactive) | 22.4 µM (inactive) | 19.3 µM (inactive) | 16.3 µM (inactive) | 16 µM (inactive) | 0.46 µM (active) | 13.9 µM (inactive) | 17.2 µM (inactive) | 18 µM (inactive) | 15.7 µM (inactive) | 17.3 µM (inactive) | 16.7 µM (inactive) | 16.7 | 14.3 µM (inactive) | 13.3 µM (inactive)
CNC(=O)CC1NC(=O)c2csc(n2)-c2ccc(-c3nc(C4=NC(C(=O)N5CCCC5C(N)=O)CO4)cs3)nc2-c2csc(n2)-c2csc(n2)C(C(C)C)NC(=O)CNC(=O)c2csc(n2)C(C(C)C)NC(=O)c2nc1sc2C (configuration not stated) | 0.00724 µM (active) | 0.00239 µM (active) | 0.0625 µM (active) | 4.37 µM (inactive) | > 25 µM (inactive) | 0.0214 µM (active) | 0.0013 µM (active) | 0.00126 µM (active) | 0.436 µM (active) | 0.0268 µM (active) | 0.00728 µM (active) | 2.18 µM (inactive) | 0.0171 µM (active) | 0.00194 µM (active) | 0.00962 µM (active) | 0.00826 µM (active) | > 25 µM (inactive) | 0.479 | 0.0153 µM (active) | 0.00175 µM (active)
COc1cc2c(c(O)c1OC)C(O)C1CCC(=O)N1C2c1cccc2ccccc12 (configuration not stated) | 99.1 µM (inactive) | > 100 µM (inactive) | > 100 µM (inactive) | 82.2 µM (inactive) | > 100 µM (inactive) | > 100 µM (inactive) | 56.1 µM (inactive) | > 100 µM (inactive) | > 100 µM (inactive) | > 100 µM (inactive) | 58.2 µM (inactive) | 91.8 µM (inactive) | 34.9 µM (inactive) | > 100 µM (inactive) | > 100 µM (inactive) | > 100 µM (inactive) | 76.4 µM (inactive) | > 100 | 89.5 µM (inactive) | > 100 µM (inactive)
COC(=O)c1ccc2n1C1CC3CC(CC2C3)C1 | > 100 µM (inactive) | 51.2 µM (inactive) | > 100 µM (inactive) | > 100 µM (inactive) | 15.3 µM (inactive) | > 100 µM (inactive) | > 100 µM (inactive) | > 100 µM (inactive) | > 100 µM (inactive) | > 100 µM (inactive) | 57.5 µM (inactive) | > 100 µM (inactive) | > 100 µM (inactive) | > 100 µM (inactive) | > 100 µM (inactive) | > 100 µM (inactive) | > 100 µM (inactive) | > 100 | > 100 µM (inactive) | > 100 µM (inactive)
CC(=O)NC1C(OCc2ccccc2)OC(CO)C(O)C1OCC(=O)NC(C)C(=O)NC(CCC(=O)NCCCCCC(=O)Nc1ccc2c(c1)CN1C(=O)c3ccccc3C1=N2)C(N)=O (configuration not stated) | 72.8 µM (inactive) | 45 µM (inactive) | 63.8 µM (inactive) | 62.8 µM (inactive) | > 100 µM (inactive) | 82.8 µM (inactive) | > 100 µM (inactive) | > 100 µM (inactive) | > 100 µM (inactive) | > 100 µM (inactive) | 42.1 µM (inactive) | > 100 µM (inactive) | 34.5 µM (inactive) | 43.1 µM (inactive) | 43.5 µM (inactive) | 41 µM (inactive) | > 100 µM (inactive) | > 100 | > 100 µM (inactive) | > 100 µM (inactive)
O=c1cnn(C2OC(C(O)CO)C(O)C2O)c(=O)[nH]1 (configuration not stated) | > 100 µM (inactive) | > 100 µM (inactive) | > 100 µM (inactive) | > 100 µM (inactive) | > 100 µM (inactive) | > 100 µM (inactive) | > 100 µM (inactive) | > 100 µM (inactive) | > 100 µM (inactive) | > 100 µM (inactive) | > 100 µM (inactive) | > 100 µM (inactive) | > 100 µM (inactive) | > 100 µM (inactive) | > 100 µM (inactive) | > 100 µM (inactive) | > 100 µM (inactive) | > 100 | > 100 µM (inactive) | > 100 µM (inactive)
COC(=O)Nc1nc2cc(NC(=O)c3ccc(I)cc3)ccc2[nH]1 | > 100 µM (inactive) | > 100 µM (inactive) | > 100 µM (inactive) | > 100 µM (inactive) | > 100 µM (inactive) | > 100 µM (inactive) | > 100 µM (inactive) | > 100 µM (inactive) | > 100 µM (inactive) | > 100 µM (inactive) | > 100 µM (inactive) | > 100 µM (inactive) | > 100 µM (inactive) | > 100 µM (inactive) | > 100 µM (inactive) | > 100 µM (inactive) | > 100 µM (inactive) | > 100 | > 100 µM (inactive) | > 100 µM (inactive)
Cc1ccc2c(c1)[nH]c(=S)n2C=C1C(=O)CC(C)(C)CC1=O | > 100 µM (inactive) | – | > 100 µM (inactive) | > 100 µM (inactive) | > 100 µM (inactive) | > 100 µM (inactive) | > 100 µM (inactive) | > 100 µM (inactive) | > 100 µM (inactive) | > 100 µM (inactive) | > 100 µM (inactive) | > 100 µM (inactive) | > 100 µM (inactive) | > 100 µM (inactive) | > 100 µM (inactive) | > 100 µM (inactive) | > 100 µM (inactive) | > 100 | > 100 µM (inactive) | 15.8 µM (inactive)
COC(=O)c1cnn2c1ccc1ccccc12 | > 100 µM (inactive) | > 100 µM (inactive) | > 100 µM (inactive) | > 100 µM (inactive) | 45.9 µM (inactive) | > 100 µM (inactive) | > 100 µM (inactive) | > 100 µM (inactive) | > 100 µM (inactive) | 45.8 µM (inactive) | > 100 µM (inactive) | 47.8 µM (inactive) | 61.5 µM (inactive) | > 100 µM (inactive) | > 100 µM (inactive) | > 100 µM (inactive) | > 100 µM (inactive) | > 100 | > 100 µM (inactive) | 78.9 µM (inactive)
C=CCN1C(=O)CS/C1=N\NC(=O)CSc1nc2ccccc2c(=O)n1CC | > 100 µM (inactive) | > 100 µM (inactive) | > 100 µM (inactive) | > 100 µM (inactive) | > 100 µM (inactive) | > 100 µM (inactive) | > 100 µM (inactive) | > 100 µM (inactive) | 75.2 µM (inactive) | > 100 µM (inactive) | > 100 µM (inactive) | 41.9 µM (inactive) | > 100 µM (inactive) | 5.37 µM (inactive) | > 100 µM (inactive) | 84.1 µM (inactive) | > 100 µM (inactive) | > 100 | > 100 µM (inactive) | > 100 µM (inactive)
COc1cc2c(SCCN(C)C)nc3ccccc3c2c2ccccc12 | 1.77 µM (inactive) | 1.72 µM (inactive) | 2.04 µM (inactive) | 1.78 µM (inactive) | 0.193 µM (active) | 1.93 µM (inactive) | 10.4 µM (inactive) | 1.68 µM (inactive) | 1.88 µM (inactive) | 5.7 µM (inactive) | 1.54 µM (inactive) | 2.26 µM (inactive) | 1.56 µM (inactive) | 1.68 µM (inactive) | 1.74 µM (inactive) | 1.79 µM (inactive) | 2.19 µM (inactive) | 1.61 | 2.25 µM (inactive) | 1.3 µM (inactive)
